Measurements as given in patent US8192962B2, “Processes for detecting toxic substances” (Daikin Industries, Ltd., priority 2001, dated 2012).

Experiments:
DNA repair protein genes = assay: DNA chip mRNA expression in yeast, DNA repair protein genes (Table 3); format: cell-based, Saccharomyces cerevisiae S288C; details: incubated two hours, concentrations as in the 1st table
Experimental: (§1) Yeast (Saccharomyces cerevisiae S288C (α SUC2mal mel gap2 CUP1)) were incubated at 25° C. on YPD medium (yeast extract 1%, polypepton 2%, glucose 2%). One of toxic chemical substances was added to the cells at logarithmic growth phase, and the cells were further incubated for two hours. Cells were cultured without any chemical substance in the same condition, and were used as control. Concentrations of the chemical substances were defined to inhibit the growth of the yeast but not lead to death.
(§2) After completion of the incubation, the culture was centrifuged to collect the cells. To the cells, sodium acetate buffer (50 mM sodium acetate, 10 mM EDTA, 1% SDS) was added, and the mixture was shaken at 65° C. for five minutes, followed by returning to room temperature, and obtaining the supernatant, of which the procedures were repeated two times. To the supernatant, ½ amount of a solution of phenol/chloroform was added, and the mixture was centrifuged to give a supernatant, which was added with an equal amount of chloroform, and the mixture was centrifuged to give a supernatant. To the supernatant, an equal amount of isopropanol containing 0.3 M sodium acetate was added, and the mixture was allowed to stand at room temperature for 30 minutes, after which the mixture was centrifuged to give a sediment of the whole RNAs. Seventy % ethanol was added to the sediment, and the mixture was again centrifuged to give a sediment, which was then dried and dissolved in water. mRNA was isolated from the whole RNAs as followings. In view of the fact that a poly A chain is attached to the 3′ terminus of mRNA, a polynucleotide having a poly T structure which was immobilized on the surface of latex beads was used to trap the mRNA, and then the mRNA was washed and eluted with spine column (Oligotex-dT30<Super>mRNA Purification Kit, Takara). Reverse transcription of the mRNA was conducted with a reverse transcriptase (Super Script II Reverse Transcriptase; catalogue No. 18064-014, GibcoBRL) using fluorescence-labeled nucleotides to give cDNAs that were introduced with Cy3-dUTP or Cy5-dUTP during the reverse transcription.
(§3) The labeled cDNAs were dissolved in TE buffer (10mM Tris-HCl/1 mM EDTA, pH8.0), and the solution was dropped on the DNA chip containing the whole genes of yeast (DNA Chip Research Inc. Japan) so that the cDNAs were hybridized on the DNA chip at 65° C. for over 12 hours. The fluoresces intensity of the DNA chip was read with a scanner, and the ratio relative to the fluorescence intensity resulting from the absence of chemical substance was estimated as the following, which is shown in Tables 1 to 9: […]

[1] = tested on: Detoxification protein genes; assay: DNA chip mRNA expression in yeast, detoxification protein genes (Table 8); format: cell-based, Saccharomyces cerevisiae S288C
Experimental: as §1, §2, §3

SMILES: CCCCCCCCCCCCOS(=O)(=O)[O-].[Na+] [(18), sodium lauryl sulfate]
- The level of expressed mRNA in the presence of chemical substance/The level of expressed mRNA in the absence of chemical substance (DNA repair protein genes; yeast gene YAL015C): 1.2
- The level of expressed mRNA in the presence of chemical substance/The level of expressed mRNA in the absence of chemical substance (DNA repair protein genes; yeast gene YAR007C): 1.0
- The level of expressed mRNA in the presence of chemical substance/The level of expressed mRNA in the absence of chemical substance (DNA repair protein genes; yeast gene YBL019W): 1.1
- The level of expressed mRNA in the presence of chemical substance/The level of expressed mRNA in the absence of chemical substance (DNA repair protein genes; yeast gene YBR073W): 0.8
- The level of expressed mRNA in the presence of chemical substance/The level of expressed mRNA in the absence of chemical substance (DNA repair protein genes; yeast gene YBR272C): 1.2
- The level of expressed mRNA in the presence of chemical substance/The level of expressed mRNA in the absence of chemical substance (DNA repair protein genes; yeast gene YCR014C): 0.9
- The level of expressed mRNA in the presence of chemical substance/The level of expressed mRNA in the absence of chemical substance (DNA repair protein genes; yeast gene YDL017W): 1.0
- The level of expressed mRNA in the presence of chemical substance/The level of expressed mRNA in the absence of chemical substance (DNA repair protein genes; yeast gene YDL059C): 0.9
- The level of expressed mRNA in the presence of chemical substance/The level of expressed mRNA in the absence of chemical substance (DNA repair protein genes; yeast gene YDL200C): 1.6
- The level of expressed mRNA in the presence of chemical substance/The level of expressed mRNA in the absence of chemical substance (DNA repair protein genes; yeast gene YDR054C): 1.4
- The level of expressed mRNA in the presence of chemical substance/The level of expressed mRNA in the absence of chemical substance (DNA repair protein genes; yeast gene YDR369C): 0.7
- The level of expressed mRNA in the presence of chemical substance/The level of expressed mRNA in the absence of chemical substance (DNA repair protein genes; yeast gene YEL019C): 0.9
- The level of expressed mRNA in the presence of chemical substance/The level of expressed mRNA in the absence of chemical substance (DNA repair protein genes; yeast gene YEL037C): 0.8
- The level of expressed mRNA in the presence of chemical substance/The level of expressed mRNA in the absence of chemical substance (DNA repair protein genes; yeast gene YER162C): 0.9
- The level of expressed mRNA in the presence of chemical substance/The level of expressed mRNA in the absence of chemical substance (DNA repair protein genes; yeast gene YFL014W): 8.8
- The level of expressed mRNA in the presence of chemical substance/The level of expressed mRNA in the absence of chemical substance (DNA repair protein genes; yeast gene YGL058W): 0.7
- The level of expressed mRNA in the presence of chemical substance/The level of expressed mRNA in the absence of chemical substance (DNA repair protein genes; yeast gene YGL091C): 1.8
- The level of expressed mRNA in the presence of chemical substance/The level of expressed mRNA in the absence of chemical substance (DNA repair protein genes; yeast gene YGL127C): 1.2
- The level of expressed mRNA in the presence of chemical substance/The level of expressed mRNA in the absence of chemical substance (DNA repair protein genes; yeast gene YGL163C): 0.8
- The level of expressed mRNA in the presence of chemical substance/The level of expressed mRNA in the absence of chemical substance (DNA repair protein genes; yeast gene YGL249W): 1.0
- The level of expressed mRNA in the presence of chemical substance/The level of expressed mRNA in the absence of chemical substance (DNA repair protein genes; yeast gene YGR180C): 1.9
- The level of expressed mRNA in the presence of chemical substance/The level of expressed mRNA in the absence of chemical substance (DNA repair protein genes; yeast gene YGR231C): 1.5
- The level of expressed mRNA in the presence of chemical substance/The level of expressed mRNA in the absence of chemical substance (DNA repair protein genes; yeast gene YGR258C): 0.9
- The level of expressed mRNA in the presence of chemical substance/The level of expressed mRNA in the absence of chemical substance (DNA repair protein genes; yeast gene YHR164C): 1.0
- The level of expressed mRNA in the presence of chemical substance/The level of expressed mRNA in the absence of chemical substance (DNA repair protein genes; yeast gene YIL036W): 1.3
- The level of expressed mRNA in the presence of chemical substance/The level of expressed mRNA in the absence of chemical substance (DNA repair protein genes; yeast gene YIL072W): 1.1
- The level of expressed mRNA in the presence of chemical substance/The level of expressed mRNA in the absence of chemical substance (DNA repair protein genes; yeast gene YIL143C): 0.9
- The level of expressed mRNA in the presence of chemical substance/The level of expressed mRNA in the absence of chemical substance (DNA repair protein genes; yeast gene YIL153W): 0.7
- The level of expressed mRNA in the presence of chemical substance/The level of expressed mRNA in the absence of chemical substance (DNA repair protein genes; yeast gene YIR002C): 1.2
- The level of expressed mRNA in the presence of chemical substance/The level of expressed mRNA in the absence of chemical substance (DNA repair protein genes; yeast gene YJL026W): 2.1
- The level of expressed mRNA in the presence of chemical substance/The level of expressed mRNA in the absence of chemical substance (DNA repair protein genes; yeast gene YJR046W): 0.7
- The level of expressed mRNA in the presence of chemical substance/The level of expressed mRNA in the absence of chemical substance (DNA repair protein genes; yeast gene YJR052W): 1.3
- The level of expressed mRNA in the presence of chemical substance/The level of expressed mRNA in the absence of chemical substance (DNA repair protein genes; yeast gene YKL145W): 1.5
- The level of expressed mRNA in the presence of chemical substance/The level of expressed mRNA in the absence of chemical substance (DNA repair protein genes; yeast gene YLR103C): 1.4
- The level of expressed mRNA in the presence of chemical substance/The level of expressed mRNA in the absence of chemical substance (DNA repair protein genes; yeast gene YLR233C): 1.2
- The level of expressed mRNA in the presence of chemical substance/The level of expressed mRNA in the absence of chemical substance (DNA repair protein genes; yeast gene YLR288C): 1.3
- The level of expressed mRNA in the presence of chemical substance/The level of expressed mRNA in the absence of chemical substance (DNA repair protein genes; yeast gene YML032C): 1.0
- The level of expressed mRNA in the presence of chemical substance/The level of expressed mRNA in the absence of chemical substance (DNA repair protein genes; yeast gene YML058W): 1.5
- The level of expressed mRNA in the presence of chemical substance/The level of expressed mRNA in the absence of chemical substance (DNA repair protein genes; yeast gene YMR035W): 2.4
- The level of expressed mRNA in the presence of chemical substance/The level of expressed mRNA in the absence of chemical substance (DNA repair protein genes; yeast gene YMR072W): 1.9
- The level of expressed mRNA in the presence of chemical substance/The level of expressed mRNA in the absence of chemical substance (DNA repair protein genes; yeast gene YMR096W): 1.0
- The level of expressed mRNA in the presence of chemical substance/The level of expressed mRNA in the absence of chemical substance (DNA repair protein genes; yeast gene YMR284W): 1.3
- The level of expressed mRNA in the presence of chemical substance/The level of expressed mRNA in the absence of chemical substance (DNA repair protein genes; yeast gene YNL213C): 1.2
- The level of expressed mRNA in the presence of chemical substance/The level of expressed mRNA in the absence of chemical substance (DNA repair protein genes; yeast gene YNL250W): 1.0
- The level of expressed mRNA in the presence of chemical substance/The level of expressed mRNA in the absence of chemical substance (DNA repair protein genes; yeast gene YNL261W): 1.0
- The level of expressed mRNA in the presence of chemical substance/The level of expressed mRNA in the absence of chemical substance (DNA repair protein genes; yeast gene YNL312W): 1.1
- The level of expressed mRNA in the presence of chemical substance/The level of expressed mRNA in the absence of chemical substance (DNA repair protein genes; yeast gene YOL043C): 1.0
- The level of expressed mRNA in the presence of chemical substance/The level of expressed mRNA in the absence of chemical substance (DNA repair protein genes; yeast gene YOR005C): 1.0
- The level of expressed mRNA in the presence of chemical substance/The level of expressed mRNA in the absence of chemical substance (DNA repair protein genes; yeast gene YOR386W): 1.7
- The level of expressed mRNA in the presence of chemical substance/The level of expressed mRNA in the absence of chemical substance (DNA repair protein genes; yeast gene YPL022W): 0.9
- The level of expressed mRNA in the presence of chemical substance/The level of expressed mRNA in the absence of chemical substance (DNA repair protein genes; yeast gene YPL164C): 1.0
- The level of expressed mRNA in the presence of chemical substance/The level of expressed mRNA in the absence of chemical substance (DNA repair protein genes; yeast gene YPL194W): 0.8
- The level of expressed mRNA in the presence of chemical substance/The level of expressed mRNA in the absence of chemical substance (DNA repair protein genes; yeast gene YPR025C): 1.5
- The level of expressed mRNA in the presence of chemical substance/The level of expressed mRNA in the absence of chemical substance ([1]; yeast gene YBL064C): 2.3
- The level of expressed mRNA in the presence of chemical substance/The level of expressed mRNA in the absence of chemical substance ([1]; yeast gene YBR008C): 1.2
- The level of expressed mRNA in the presence of chemical substance/The level of expressed mRNA in the absence of chemical substance ([1]; yeast gene YBR145W): 2.0
